Patent US20230048888A1, “USE OF TRIAZOLOTRIAZINE DERIVATIVE IN TREATMENT OF DISEASES” (ZHEJIANG VIMGREEN PHARMACEUTICALS, LTD., priority 2019, published 2023)

Legend:
[1] = Pharmacokinetics of test compounds in SD rats (15.2; IV and PO, mixed administration); format: in vivo; settings: PO, 3 mg/kg
[2] = as above; format: in vivo; settings: male, Sprague-Dawley, rat, plasma, SD rats, PO
Method: Administration dose: the compounds in this group were all administered in a mixed way, with 6 compounds in each group for mixed PO administration.
Blood was collected based on the blood collection points in the test protocol. 50 μL of plasma sample was added with acetonitrile (containing 5 ng/mL Verapamil) being 3 folds of the volume thereof; the resulting mixture was vortexed for 30 s, and then centrifuged for 15 min at 15,000 rpm at 4° C.; and 10μ L of supernatant was taken for LC-MS/MS analysis.
For each compound, 3 male SD rats weighing 200-220 g were fasted for one night before dosage, but had access to water.
Orally intragastric administration: before intragastric administration and at 0.083 h, 0.25 h, 0.5 h, 1 h, 2 h, 4 h, 8 h and 24 h after administration (for Compounds 40, 27, 40 and 47), or at 0.25 h, 0.5 h, 1 h, 4 h, 6 h and 8 h after administration (for Compounds 44 and 48), orbital blood was collected and put in a test tube that was treated with heparin sodium, and after centrifugation, the supernatant plasma was collected for LC-MS/MS analysis.
The plasma samples were processed according to the method for “sample treatment” and then analyzed by LC-MS/MS, accompanied with the standard curve and quality control samples. At a time point when the upper limit of quantification was exceeded, the samples were diluted 10 or 100 folds for analysis. All measured data were collected and processed by Analyst 1.6.3 software, and the data were calculated and processed with Microsoft Excel. With DAS 3.2.8 software, the pharmacokinetic parameters were calculated by the statistical moment method. The pharmacokinetic parameters mainly include Tmax, t1/2, Cmax, AUC(0-t), etc.

adenosine receptors A2A = target: T1, adenosine receptors A2A (Homo sapiens, UniProt P29274); assay: TR-FRET-based cAMP accumulation assay in hADORA2A-HEK293 cells; format: cell-based; settings: NECA at EC80, hADORA2A-HEK293, read-out: A2AR activity (IC50)
T1 construct: expressed in transfected cells; host or cells: HEK293 (hADORA2A-HEK293)
T1 sequence (P29274 whole entry): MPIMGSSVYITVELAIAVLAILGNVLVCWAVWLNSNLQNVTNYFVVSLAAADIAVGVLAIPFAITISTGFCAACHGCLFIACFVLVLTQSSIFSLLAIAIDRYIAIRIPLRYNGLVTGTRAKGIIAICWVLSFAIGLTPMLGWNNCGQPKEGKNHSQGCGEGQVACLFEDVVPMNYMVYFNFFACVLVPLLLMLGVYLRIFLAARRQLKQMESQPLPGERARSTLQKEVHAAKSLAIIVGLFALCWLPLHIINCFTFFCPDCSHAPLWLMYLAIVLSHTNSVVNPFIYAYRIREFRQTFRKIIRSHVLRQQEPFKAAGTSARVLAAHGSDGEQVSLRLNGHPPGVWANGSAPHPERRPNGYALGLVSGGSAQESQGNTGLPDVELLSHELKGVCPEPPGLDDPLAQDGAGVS
Method: The inhibitory effects of the test compounds on the adenosine receptors A2A were evaluated by TR-FRET-based cAMP accumulation assay. The method included, in HEK293 cells (hADORA2A-HEK293) expressing A2AR, the production of cAMP stimulated by NECA and the inhibitory effect of A2A receptor antagonists on cAMP. All cells were cultured in a complete medium at 37° C. in the presence of 5% CO2. After being digested with trypsin, the cells were collected by centrifugation at 200 g for 5 minutes. The cells were resuspended in a fresh complete medium, and then the cell viability was counted by a trypan blue exclusion method. […] The cells were diluted with Hank's buffer solution containing HEPES (5 mM), BSA stabilizer (0.1%) and Rolipram (10 μM), then added to a 384-well white non-transparent plate (cells/well, 10 μl/well), and incubated with the test compound at an appropriate concentration (11 concentrations) for 20 minutes at room temperature. Then, the A2A receptor agonist NECA (final concentration=EC80, which was determined in the same experiment performed earlier) was added to the sample, and the sample was incubated again at 37° C. for 30 minutes.
An inhibition rate (%) was calculated according to the following formula, and an IC50 value was calculated from a concentration-inhibition (%) curve after log conversion.
A curve corresponding to the dose was fitted by using XLfit software and the IC50 was determined.

[3] = system: haloperidol-induced stiffness; assay: Haloperidol-induced Wistar rat stiffness model (bar test, rearing); format: in vivo, Wistar rats; settings: for Number of standings: 1st hour after haloperidol
Method: Time of bar test: The stiffness of the rats was tested by the bar test. That is, a wooden bar with a diameter of 8 mm was fixed between 2 iron stands and was 10 cm from the bench top; and then, the rat's tail was grabbed to make its front paws rest on the wooden bar and its hind paws or buttocks on the ground. Generally, the rat needs to acclimate several times when it was tested for the first time. The time for the forelimbs to drop from the bar or the time for the hind limbs to leave the bench top were tested, each rat was tested 3 times. Number of standings: the number of standings of the rat was measured by the rearing test. That is, the rat was placed in a 27*52 cm cage and acclimate for 5 minutes, and the spontaneous activity behavior, i.e., the number of standings, of the rat within 10 minutes was recorded. When the rat's hind limbs stood with two forelimbs raised over the shoulders and touched the ground, one standing is counted, and the one forelimb lift was excluded. Generally, the rat would raise its forelimbs to touch the cage wall. If the rat raised its forelimbs over the shoulders several times without falling to the ground, only one standing was counted. The time of bar test was taken as a measurement index, including the average time and the maximum time. Long time indicates severe stiffness, short time indicates mild stiffness. After drug treatment, the shorter the time of bar test, the better the effect of the drug on relieving stiffness. The number of standings was counted by the rearing test. The more the number of standings, the more frequent the spontaneous exploration activity of the rat, and the lower the stiffness. The statistical analysis between groups was performed on the data by using Prism GraphPad 7.0 independent sample T test, and P<0.05 was considered as a significant difference.

[4] = system: haloperidol-induced stiffness; assay: Haloperidol-induced Parkinson's disease stiffness model in CD-1 mice (rearing and bar tests); format: in vivo; settings: Experiment I
From the text: Parkinson's disease (PD) is a common class of degenerative disease of the nervous system with the main pathological changes including the loss of substantia nigra dopaminergic neurons and the decrease of dopamine transmitter content, leading to tremor at rest, muscle stiffness, […], postural reflex disorders and other clinical symptoms. Haloperidol, a dopamine D2 receptor blocker, can block the dopamine D2 receptor in the striatum, leading to mouse dystonic postures, namely, stiffness and hypokinesia. This model is a recognized animal model of Parkinson's syndrome. The ameliorative effect of a test substance on the stiffness symptom of Parkinson's disease induced by haloperidol in CD-1 mice was evaluated. 57 SPF-grade male CD-1 mice (4 weeks old at the time of purchase and 8 weeks old at the time of experiment) with the weight of about 40 g were randomly divided into 5 groups, namely, a vehicle group (n=11), a group of 1 mg/kg benzene sulfonate of Compound 40 (n=11), a group of 3 mg/kg benzene sulfonate of Compound 40 (n=12), a group of 10 mg/kg benzene sulfonate of Compound 40 (n=12), and a group of 30 mg/kg benzene sulfonate of Compound 40 (n=11). 1 mg/kg haloperidol was injected subcutaneously at an injection volume of 10 ml/kg. 30 minutes after the injection, Compound 40 at each dose was intragastrically infused at a volume of 10 ml/kg. At the 1st hour and the 4th hour after the administration was completed, the rearing and bar tests were performed respectively, and the number of standings and on-bar time of the mice were counted to evaluate the ameliorative effect of Compound 40 on the stiffness symptom of haloperidol-induced Parkinson's disease in CD-1 mice. […] Firstly, the acetate of Compound 22 at each dose was intragastrically infused at a volume of 10 ml/kg. After 30 min, 1 mg/kg haloperidol was injected subcutaneously at an injection volume of 10 ml/kg. At the 1st hour and the 4th hour after the administration was completed, the rearing and bar tests were performed respectively, and the number of standings and on-bar time of the mice were counted to evaluate the ameliorative effect of the acetates of Compound 22 on the stiffness symptom of haloperidol-induced Parkinson's disease in CD-1 mice. […] Firstly, Compound 27 at each dose was intragastrically infused at a volume of 10 ml/kg. After 30 min, 1 mg/kg haloperidol was injected subcutaneously at an injection volume of 10 ml/kg. At the 1st hour and the 4th hour after the administration was completed, the rearing and bar tests were performed respectively, and the number of standings and on-bar time of the mice were counted to evaluate the ameliorative effect of Compound 27 on the stiffness symptom of haloperidol-induced Parkinson's disease in CD-1 mice. The mice were subcutaneously injected with haloperidol at abdomen at a dose of 1 mg/kg, with the concentration of a working solution of 0.1 mg/ml and an injection volume of 10 ml/kg. At the 1st hour and the 4th hour after drug intervention, the mice were put into a white transparent plastic bucket with a diameter of 20 cm and a height of 21 cm. The mice were allowed to acclimate in the bucket for 5 min before starting video recording. The spontaneous activity behaviors of the mice within 10 minutes were recorded, whereby the number of standings was counted. The more the standings, the more frequent the spontaneous exploration activities of the mice, and the lower the degree of stiffness. At the time points of 1st and 4th hours after the rearing test was completed, bar test was carried out. The mice were placed on a long wooden bar with a diameter of […] and a height of 6 cm. The mice were let to hold the wooden bar with forelimbs, only with the buttocks or hind limbs on the ground. The timing was stopped when the hind limbs left the bench top or the fore limbs left the wooden bar, and the on-bar time of the mice was recorded. Each mouse was tested 3 times, and the maximum on-bar time and the average on-bar time were counted. […]

[5] = Pharmacokinetics of Compound 40 and benzene sulfonate thereof in ICR mice, PO; settings: mouse, in vivo, PO 100 mg/kg (based on free base), 40% Hp-β-CD
[6] = male, Sprague-Dawley, rat, plasma
[7] = 10 mg/kg intragastric, 1st hour
[8] = 10 mg/kg intragastric, 4th hour
[9] = 30 mg/kg intragastric, 1st hour
[10] = 30 mg/kg intragastric, 4th hour

## COCCn1nnc(-c2ccc(CCNc3nc(N)n4nc(-c5ccco5)nc4n3)cc2)n1 [Compound 47, N5-(4-(2-(2-methoxyethyl)-2H-tetrazol-5-yl)phenethyl)-2-(furan-2-yl)-[1,2,4]triazolo[1,5-a][1,3,5]triazine-5,7-diamine]
[1]
  Cl_F_pred: 23.1623 mL/min/kg
[1]; [6]
  AUC(0-t): 1500 ng·h/mL
  Cmax: 538 ng/mL
[2]; 2 mg/kg, mixed administration (6 compounds per group)
  AUC(0-t): 779 ng·h/mL
[2]; 3 mg/kg, read-out: T½ (converted)
  half-life: 2.25 h
Adenosine receptors A2A
  IC50: 13.9 nM

## Cn1nnc(-c2ccc(CCNc3nc(N)n4nc(-c5ccco5)nc4n3)cc2)n1.O=S(=O)(O)c1ccccc1 [Benzene sulfonate of Compound 40, N^5-(4-(2-methyl-2H-tetrazol-5-yl)phenethyl)-2-(furan-2-yl)-[1,2,4]triazolo[1,5-a][1,3,5]triazine-5,7-diamine benzene sulfonate]
[3]; 3 mg/kg intragastric
  Average on-bar time: 212.67 ± 51.43 s
  Maximum on-bar time: 266.63 ± 50.73 s
  Number of standings: 1.75 ± 0.60
[3]; 10 mg/kg intragastric
  Average on-bar time: 41.67 ± 16.50 s
  Maximum on-bar time: 69.67 ± 28.71 s
  Number of standings: 7.89 ± 0.98
[3]; 30 mg/kg intragastric
  Average on-bar time: 12.29 ± 1.41 s
  Maximum on-bar time: 18.00 ± 2.21 s
  Number of standings: 13.00 ± 0.96
[4]; 1 mg/kg intragastric, 1st hour
  Average on-bar time: 237.67 ± 40.20 s
  Maximum on-bar time: 356.43 ± 55.79 s
  Number of standings: 17.00 ± 1.99
[4]; 1 mg/kg intragastric, 4th hour
  Average on-bar time: 241.14 ± 31.32 s
  Maximum on-bar time: 361.29 ± 53.92 s
  Number of standings: 8.71 ± 2.68
[4]; 3 mg/kg intragastric, 1st hour
  Average on-bar time: 120.05 ± 35.31 s
  Maximum on-bar time: 184.00 ± 50.55 s
  Number of standings: 17.00 ± 2.99
[4]; 3 mg/kg intragastric, 4th hour
  Average on-bar time: 171.76 ± 52.86 s
  Maximum on-bar time: 225.14 ± 51.96 s
  Number of standings: 14.86 ± 1.89
[4]; [7]
  Average on-bar time: 36.10 ± 5.88 s
  Maximum on-bar time: 57.00 ± 11.21 s
  Number of standings: 34.90 ± 4.75
[4]; [8]
  Average on-bar time: 66.07 ± 13.96 s
  Maximum on-bar time: 96.10 ± 23.06 s
  Number of standings: 17.80 ± 4.32
[4]; [9]
  Average on-bar time: 26.50 ± 5.88 s
  Maximum on-bar time: 34.88 ± 6.68 s
  Number of standings: 43.25 ± 3.89
[4]; [10]
  Average on-bar time: 20.00 ± 1.28 s
  Maximum on-bar time: 24.13 ± 1.67 s
  Number of standings: 25.13 ± 3.25
[5]
  AUC(0-t): 138000 ng·h/mL
  Cmax: 36000 ng/mL
  Tmax: 0.5 h
[5]; read-out: AUCINF—pred
  AUC(0-inf): 138000 ng·h/mL
[5]; read-out: T½ (converted)
  half-life: 2.29 h
